Experimental data as given in PMC4755933 (Journal of medicinal chemistry, 2015).

Assays:
bromodomain of TRIM24 = molecular target: T1, bromodomain of TRIM24 (Homo sapiens, UniProt O15164); test: AlphaScreen biochemical bromodomain-H3K23; assay type: binding; conditions: from TRIM24 IC50
T1 sequence (O15164 899-1004 limits assumed): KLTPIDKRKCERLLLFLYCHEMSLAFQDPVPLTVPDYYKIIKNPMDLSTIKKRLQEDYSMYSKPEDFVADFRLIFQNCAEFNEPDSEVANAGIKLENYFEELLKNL

[1] = CACO-2 permeability assay
TRIM24(PHD-bromo) = molecular target: T2, TRIM24(PHD-bromo) (Homo sapiens, UniProt O15164); conditions: TRIM24 AlphaLisa assay in HeLa cells, in words
T2 sequence (O15164 824-1006 limits assumed): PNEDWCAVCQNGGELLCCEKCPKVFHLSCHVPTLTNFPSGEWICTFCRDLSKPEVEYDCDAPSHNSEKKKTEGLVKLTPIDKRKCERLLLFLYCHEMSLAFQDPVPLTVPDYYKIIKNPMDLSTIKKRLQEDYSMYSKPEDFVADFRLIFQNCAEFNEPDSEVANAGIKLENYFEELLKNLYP

panel of 32 bromodomains = conditions: 1 μM concentration

Row | SMILES | ligand efficiency (LE) (bromodomain of TRIM24) | also measured
1 | Cn1c(=O)n(C)c2cc(NS(=O)(=O)c3ccc(C4CCCCC4)cc3)ccc21 [Compound 5e, 4-cyclohexyl-N-(1,3-dimethyl-2-oxo-2,3-dihydro-1H-1,3-benzodiazol-5-yl)benzene-1-sulfonamide] | 0.28 | –
2 | Cc1nc(-c2ccc3c(c2)CC(=O)N3C)cs1 [Compound 1] | 0.41 | –
3 | CC(C)COc1cccc(Oc2ccc3c(c2)n(C)c(=O)n3C)c1 [Compound 7j, 1,3-dimethyl-5-[3-(2-methylpropoxy)phenoxy]-2,3-dihydro-1H-1,3-benzodiazol-2-one] | – | cellular activity (TRIM24(PHD-bromo)): no cellular activity
4 | CCCOc1cc(OCCCCN(C)C)cc(Oc2cc3c(cc2NS(=O)(=O)c2ccc(OC)c(OC)c2)n(C)c(=O)n3C)c1 [Compound 8i, N-(6-{3-[4-(dimethylamino)butoxy]-5-propoxyphenoxy}-1,3-dimethyl-2-oxo-2,3-dihydro-1H-1,3-benzodiazol-5-yl)-3,4-dimethoxybenzene-1-sulfonamide] | – | interactions against 26 other bromodomains (panel of 32 bromodomains): No interactions were detected
5 | COc1ccc(Oc2cc3c(cc2NS(=O)(=O)c2ccccc2)n(C)c(=O)n3C)cc1 [Compound 5g] | 0.26 | –
6 | Cn1cnc(S(=O)(=O)Nc2cc3c(cc2Oc2ccc(OCc4ccccc4)cc2)n(C)c(=O)n3C)c1 [Compound 6, N-{6-[4-(benzyloxy)phenoxy]-1,3-dimethyl-2-oxo-2,3-dihydro-1H-1,3-benzodiazol-5-yl}-1-methyl-1H-imidazole-4-sulfonamide] | – | cellular activity (TRIM24(PHD-bromo)): no cellular activity

More lines, main results first:

Row | ligand efficiency (LE) (bromodomain of TRIM24) | SMILES | also measured
7 | 0.23 | COc1ccc(S(=O)(=O)Nc2cc3c(cc2Oc2cccc(OCc4ccccc4)c2)n(C)c(=O)n3C)cc1OC [Compound 7b, N-{6-[3-(benzyloxy)phenoxy]-1,3-dimethyl-2-oxo-2,3-dihydro-1H-1,3-benzodiazol-5-yl}-3,4-dimethoxybenzene-1-sulfonamide] | CACO-2 flux from the apical to basolateral side (Papp) [1]: 21 Papp×10^−6 cm·s^−1
8 | 0.27 | CCCOc1cccc(Oc2cc3c(cc2NS(=O)(=O)c2ccc(OC)c(OC)c2)n(C)c(=O)n3C)c1 [Compound 7e, N-[1,3-dimethyl-2-oxo-6-(3-propoxyphenoxy)-2,3-dihydro-1H-1,3-benzodiazol-5-yl]-3,4-dimethoxybenzene-1-sulfonamide] | –
